Data reported in patent US10376484B2, “Combination of bezafibrate and of resveratrol or resveratrol derivatives for the treatment and prevention of diseases involving a mitochondrial energy dysfunction” (priority 2013, dated 2019).

How the values were obtained:
Format in all cases: cell-based, human
[1] = tested on: fibroblasts of patients suffering from moderate CPT2 deficiency; assay: Tritiated palmitate β-oxidation (FAO) in fibroblasts after 48 h treatment, CPT2 deficiency; conditions: for % increase in fatty acid oxidation (FAO): 48 h, vs carrier
Description: (§1) Cellular palmitate β-oxidation activity can be measured with any suitable technology known to persons skilled in the art. That can in particular be achieved by using tritiated palmitate complexed with BSA (bovine albumin serum), which is added to the cells to be tested. After incubation, the addition of trichloroacetic acid (TCA) in a supernatant sample makes it possible to precipitate unmetabolized complexes (BSA/tritiated palmitate), which are excluded by centrifugation. The measurement of tritium present in the supernatant after centrifugation and exclusion of unmetabolized complexes (BSA/tritiated palmitate) makes it possible to determine the amount of palmitate metabolized by the cells. A precise example of a protocol for implementing this process for measuring palmitate β-oxidation activity is described in Example 1. The fibroblasts are grown at 37° C. in complete Ham's F10 medium, i.e., supplemented with 12% fetal calf serum, 100 U/ml penicillin, and 0.1 mg/ml streptomycin, at a concentration of 70,000 cells per ml and per well in 24-well culture dishes. Twenty-four hours after seeding, stock solutions of RSV (0.2 M) and of BZ (0.4 M) are prepared in DMSO in order to prepare the various cell treatment media. For the treatment, the culture medium is discarded and replaced with 1 ml of complete Ham's F10 medium supplemented with one of the molecules of interest at one of the following concentrations, 75 μM RSV, or 400 μM BZ, or 20 μM RSV, or 30 μM RSV, […], […], or the culture medium is discarded and replaced with 1 ml of complete Ham's F10 medium supplemented with a combination of the two molecules of interest at the following concentrations: ([…]), or ([…]). Additional wells receive 1 ml of complete medium supplemented with the diluent of the molecules of interest only (<0.05% DMSO). Each of these treatment conditions is applied in triplicate (3 wells) for each patient, in each experiment. The 24-well dishes are then incubated at 37° C. for 48 hours. Thus, the cells of each individual studied are treated in all of the conditions listed, in parallel, for 48 hours, before the measurement of palmitate β-oxidation. The fatty acid used is palmitate labeled with tritium at positions 9 and 10 (^3H-Pal). A stock solution is prepared beforehand by mixing 100 μl of ^3H-Pal, 130 μl of 50 mM “cold” palmitate and 13 ml of 25 mg/ml BSA solution. A ^3H-Pal/BSA (bovine serum albumin) complex ensuring good palmitate solubilization is thus obtained (final palmitate concentration: 500 μM). The test of ^3H-palmitate oxidation is carried out on fibroblasts seeded in a 24-well plate. The culture medium is first discarded and the wells are rinsed three times with PBS. A 125 μM ^3H-Pal working solution is prepared, from the 500 μM stock solution, in PBS with Ca/Mg, supplemented with 1 mM carnitine. 200 μl of t[…]-Pal solution is introduced into each well and the plates are incubated at 37° C. for 2 hours. During this time, three counting vials are prepared for the measurement of specific radioactivity (RDA, in CPM/nmol of fatty acids) of the reaction medium. These vials contain 5 ml of scintillation fluid, 1.5 ml of distilled water, and 20 μl of ^3H-Pal/BSA solution. The scintillation fluid converts the radioactive energy of ^3H into light energy, which thus makes it possible to measure radioactivity, expressed in counts per minute (CPM), using a liquid scintillation counter. At the end of 2 hours of incubation, 200 μl is taken from each well and mixed with 200 μl of 10% trichloroacetic acid (TCA). This strong acid ensures the precipitation of unmetabolized BSA/AG complex. The tubes are then centrifuged at 3300 rpm for 10 minutes at 4° C. After centrifugation, 350 μl of supernatant is taken and mixed with […] of 6 M NaOH in order to neutralize the pH. The total volume, or 450 μl, is transferred to an ion-exchange resin column which retains the tritiated water. These columns are then transferred to scintillation vials. […]

[2] = tested on: fibroblasts of patients suffering from moderate β-oxidation deficiency; assay: Palmitate β-oxidation, correction of deficiency, pooled statements over deficiency types; conditions: for reduction in dose by a factor, combination vs compound alone: 30 μM RSV + 35 μM BZ vs 75 μM RSV / 400 μM BZ; for reduction in dose by a factor, combination vs compound alone / concentration at which the compound alone corrects the deficiency: VLCAD and CPT2 deficiency; for concentration at which the compound alone corrects the deficiency: compound used alone; for factor by which combining the two molecules decreases the dose needed to correct the deficiency: conclusion over three types of moderate β-oxidation enzyme deficiencies
Description: The fibroblasts are grown at 37° C. in complete Ham's F10 medium, i.e., supplemented with 12% fetal calf serum, 100 U/ml penicillin, and 0.1 mg/ml streptomycin, at a concentration of 70,000 cells per ml and per well in 24-well culture dishes. Twenty-four hours after seeding, stock solutions of RSV (0.2 M) and of BZ (0.4 M) are prepared in DMSO in order to prepare the various cell treatment media. For the treatment, the culture medium is discarded and replaced with 1 ml of complete Ham's F10 medium supplemented with one of the molecules of interest at one of the following concentrations, 75 μM RSV, or 400 μM BZ, or 20 μM RSV, or 30 μM RSV, or 25 μM RSV, or 35 μM RSV, or the culture medium is discarded and replaced with 1 ml of complete Ham's F10 medium supplemented with a combination of the two molecules of interest at the following concentrations: (20 μM RSV+[…]), or (30 μM RSV+[…]). Additional wells receive 1 ml of complete medium supplemented with the diluent of the molecules of interest only (<0.05% DMSO). Each of these treatment conditions is applied in triplicate (3 wells) for each patient, in each experiment. The 24-well dishes are then incubated at 37° C. for 48 hours. Thus, the cells of each individual studied are treated in all of the conditions listed, in parallel, for 48 hours, before the measurement of palmitate β-oxidation. The fatty acid used is palmitate labeled with tritium at positions 9 and 10 (^3H-Pal). A stock solution is prepared beforehand by mixing 100 μl of ^3H-Pal, 130 μl of 50 mM “cold” palmitate and 13 ml of 25 mg/ml BSA solution. A ^3H-Pal/BSA (bovine serum albumin) complex ensuring good palmitate solubilization is thus obtained (final palmitate concentration: 500 μM). The test of ^3H-palmitate oxidation is carried out on fibroblasts seeded in a 24-well plate. The culture medium is first discarded and the wells are rinsed three times with PBS. A 125 μM ^3H-Pal working solution is prepared, from the 500 μM stock solution, in PBS with Ca/Mg, supplemented with 1 mM carnitine. 200 μl of t[…]-Pal solution is introduced into each well and the plates are incubated at 37° C. for 2 hours. During this time, three counting vials are prepared for the measurement of specific radioactivity (RDA, in CPM/nmol of fatty acids) of the reaction medium. These vials contain 5 ml of scintillation fluid, 1.5 ml of distilled water, and 20 μl of ^3H-Pal/BSA solution. The scintillation fluid converts the radioactive energy of ^3H into light energy, which thus makes it possible to measure radioactivity, expressed in counts per minute (CPM), using a liquid scintillation counter. At the end of 2 hours of incubation, 200 μl is taken from each well and mixed with 200 μl of 10% trichloroacetic acid (TCA). This strong acid ensures the precipitation of unmetabolized BSA/AG complex. The tubes are then centrifuged at 3300 rpm for 10 minutes at 4° C. After centrifugation, 350 μl of supernatant is taken and mixed with […] of 6 M NaOH in order to neutralize the pH. The total volume, or 450 μl, is transferred to an ion-exchange resin column which retains the tritiated water. These columns are then transferred to scintillation vials. The tritiated water is then eluted with 1.7 ml of distilled water. 5 ml of scintillation fluid is added to the tritiated water and the vials are placed in the liquid scintillation counter.

[3] = tested on: fibroblasts of patients suffering from moderate VLCAD deficiency; assay: Tritiated palmitate β-oxidation (FAO) in fibroblasts after 48 h treatment, VLCAD deficiency; conditions: for % increase in fatty acid oxidation (FAO): 48 h, vs carrier
Description: as §1

Oc1ccc(/C=C/c2cc(O)cc(O)c2)cc1 [RSV, 5-[(E)-2-(4-hydroxyphenyl)-ethenyl]benzene-1,3-diol]
% increase in fatty acid oxidation (FAO) ([1]; patient DIA Ke, 75 μM RSV alone): 44%
% increase in fatty acid oxidation (FAO), Measured ([1]; patient DIA Ke, Condition 1, 20 μM RSV alone): 49%
% increase in fatty acid oxidation (FAO), Measured ([1]; patient DIA Ke, Condition 2, 30 μM RSV alone): 66%
% increase in fatty acid oxidation (FAO) ([1]; patient alpha, 75 μM RSV alone): 100%
% increase in fatty acid oxidation (FAO), Measured ([1]; patient alpha, Condition 1, 20 μM RSV alone): 39%
% increase in fatty acid oxidation (FAO), Measured ([1]; patient alpha, Condition 2, 30 μM RSV alone): 48%
reduction in dose by a factor, combination vs compound alone [2]: 2.5
concentration at which the compound alone corrects the deficiency [2]: 75 µM
factor by which combining the two molecules decreases the dose needed to correct the deficiency [2]: 2
% increase in fatty acid oxidation (FAO) ([3]; patient E3536, 75 μM RSV alone): 145%
% increase in fatty acid oxidation (FAO), Measured ([3]; patient E3536, Condition 1, 20 μM RSV alone): 81%
% increase in fatty acid oxidation (FAO), Measured ([3]; patient E3536, Condition 2, 30 μM RSV alone): 106%
% increase in fatty acid oxidation (FAO) ([3]; patient beta, 75 μM RSV alone): 67%
% increase in fatty acid oxidation (FAO), Measured ([3]; patient beta, Condition 1, 20 μM RSV alone): 22%
% increase in fatty acid oxidation (FAO), Measured ([3]; patient beta, Condition 2, 30 μM RSV alone): 43%

CC(C)(Oc1ccc(CCNC(=O)c2ccc(Cl)cc2)cc1)C(=O)O [BZ, 2-(4-(2-((4-chlorobenzoyl)amino)ethyl)phenoxy)-2-methylpropanoic acid]
% increase in fatty acid oxidation (FAO) ([1]; patient DIA Ke, 400 μM BZ alone): 62%
% increase in fatty acid oxidation (FAO), Measured ([1]; patient DIA Ke, Condition 1, 25 μM BZ alone): 0%
% increase in fatty acid oxidation (FAO), Measured ([1]; patient DIA Ke, Condition 2, 35 μM BZ alone): 6%
% increase in fatty acid oxidation (FAO) ([1]; patient alpha, 400 μM BZ alone): 88%
% increase in fatty acid oxidation (FAO), Measured ([1]; patient alpha, Condition 1, 25 μM BZ alone): 0%
% increase in fatty acid oxidation (FAO), Measured ([1]; patient alpha, Condition 2, 35 μM BZ alone): 6%
reduction in dose by a factor, combination vs compound alone [2]: 11.4
concentration at which the compound alone corrects the deficiency [2]: 400 µM
factor by which combining the two molecules decreases the dose needed to correct the deficiency [2]: 10
% increase in fatty acid oxidation (FAO) ([3]; patient E3536, 400 μM BZ alone): 128%
% increase in fatty acid oxidation (FAO), Measured ([3]; patient E3536, Condition 1, 25 μM BZ alone): 7%
% increase in fatty acid oxidation (FAO), Measured ([3]; patient E3536, Condition 2, 35 μM BZ alone): 20%
% increase in fatty acid oxidation (FAO) ([3]; patient beta, 400 μM BZ alone): 83%
% increase in fatty acid oxidation (FAO), Measured ([3]; patient beta, Condition 1, 25 μM BZ alone): 1%
% increase in fatty acid oxidation (FAO), Measured ([3]; patient beta, Condition 2, 35 μM BZ alone): 8%
